Laboratory results published in patent publication US20230058954A1, “APREPITANT FOR USE IN THE TOPICAL TREATMENT OF FACIAL NEURALGIA” (ASSISTANCE PUBLIQUE - HOPITAUX DE PARIS, priority 2020, published 2023).

System: patients suffering from facial neuralgia
Test: Earlier treatments of the same patients (not relieved by)
Format: in vivo, human
[1] = Patient 3, post-zooster facial neuralgia

Row | Compound | relief of pain by earlier treatment (Patient 1, trigeminal neuralgia) | relief of pain by earlier treatment (Patient 2, facial neuralgia) | relief of pain by earlier treatment [1]
1 | CNC1(c2ccccc2Cl)CCCCC1=O (stereo not drawn) [ketamine] | No relieved |  | 
2 | CCC(=O)C(CC(C)N(C)C)(c1ccccc1)c1ccccc1 (stereo not drawn) [methadone] |  | No relieved | 
3 | NCC1(CC(=O)O)CCCCC1 [gabapentin] |  | No relieved | 
4 | CN(C)CCC=C1c2ccccc2CCc2ccccc21 [amitriptyline] |  | No relieved | No relieved
5 | CC(C)C[C@H](CN)CC(=O)O [pregabalin] |  | No relieved | No relieved
6 | COc1cccc(C2(O)CCCCC2CN(C)C)c1 (stereo not drawn) [tramadol] |  |  | No relieved
7 | CNCC[C@H](Oc1cccc2ccccc12)c1cccs1 [duloxetine] |  | No relieved | 
